The subject of one assay is cultured human mast cells (CHMC). The assay can be described thus: CHMC low cell density IgE activation: tryptase assay. It is filed as cell-based. The conditions noted are these: low cell density; read-out: CHMC anti-IgE Tryptase. In a few lines:
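Cells pelleted, taken up in warm MT, plated at 1000-1500/well, held 1 hr 37° C. Anti-IgE added, 30 min 37° C. Plates spun; supernatant mixed with tryptase substrate, 30 min RT.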
On to `CC(=O)N1CCN(c2ccc(Nc3ncc(F)c(Nc4ccc5c(n4)NC(=O)CO5)n3)cc2)CC1` [Compound R945391], for which the IC50 came to 94 nM.

Take `COc1cc(Nc2ncc(F)c(Nc3ccc4c(c3)NC(=O)C(F)(F)O4)n2)cc(C(F)(F)F)c1` [Compound R926984]: the IC50 was 167 nM.

Turning to `COc1ccc(Nc2ncc(F)c(Nc3cccc(N)n3)n2)cc1Cl` [Compound R927082], the IC50 is 256 nM.

For `CNC(=O)C1Cc2cc(Nc3ncc(F)c(Nc4ccc5c(c4)NC(=O)C(F)(F)O5)n3)ccc2O1` (racemic) [Compound R927049], the IC50 is 110 nM.

For the compound `CC1(C)Oc2ccc(Nc3ncc(F)c(Nc4ccc5c(c4)NC(=O)C(F)(F)O5)n3)cc2NC1=O` [Compound R940367], the IC50 amounted to 117 nM.

For the compound `O=C1COc2ccc(Nc3nc(Nc4cccc(OCC(=O)NC5CCC5)c4)ncc3F)nc2N1` [Compound R945389], the IC50 was found to be 74.8 nM.

For another assay the test system is unchanged. The assay can be described thus: CHMC low cell density ionomycin activation: tryptase assay. The class given is cell-based. The conditions noted are these: low cell density; read-out: CHMC Ionomycin Tryptase.
For the compound `CC(=O)N1CCN(c2ccc(Nc3ncc(F)c(Nc4ccc5c(n4)NC(=O)CO5)n3)cc2)CC1` [Compound R945391], the IC50 was over 10 µM.

For `COc1cc(Nc2ncc(F)c(Nc3ccc4c(c3)NC(=O)C(F)(F)O4)n2)cc(C(F)(F)F)c1` [Compound R926984], the IC50 is over 10 µM.

As for `COc1ccc(Nc2ncc(F)c(Nc3cccc(N)n3)n2)cc1Cl` [Compound R927082], the IC50 was over 10 µM.

For the compound `CNC(=O)C1Cc2cc(Nc3ncc(F)c(Nc4ccc5c(c4)NC(=O)C(F)(F)O5)n3)ccc2O1` (racemic) [Compound R927049], the IC50 was over 10 µM.

With `CC1(C)Oc2ccc(Nc3ncc(F)c(Nc4ccc5c(c4)NC(=O)C(F)(F)O5)n3)cc2NC1=O` [Compound R940367], the IC50 was 14.1 µM.

As for `O=C1COc2ccc(Nc3nc(Nc4cccc(OCC(=O)NC5CCC5)c4)ncc3F)nc2N1` [Compound R945389], the IC50 is over 10 µM.

A further assay deals with T1, Syk kinase (Homo sapiens, UniProt P43405).
T1 construct: purchased Upstate, Lake Placid NY
The assay can be described thus: Syk kinase biochemical fluorescence polarization assay. To be noted: isolated Syk kinase, fluorescence polarization, 4 uM ATP. A general note: In fluorescence polarisation assays a small probe gives low polarisation when free and higher when bound to something large.
`CC(=O)N1CCN(c2ccc(Nc3ncc(F)c(Nc4ccc5c(n4)NC(=O)CO5)n3)cc2)CC1` [Compound R945391] showed an IC50 of 10 nM.

Consider `COc1cc(Nc2ncc(F)c(Nc3ccc4c(c3)NC(=O)C(F)(F)O4)n2)cc(C(F)(F)F)c1` [Compound R926984], for which the IC50 came to 459 nM.

`COc1ccc(Nc2ncc(F)c(Nc3cccc(N)n3)n2)cc1Cl` [Compound R927082] displayed an IC50 of 312 nM.

`CNC(=O)C1Cc2cc(Nc3ncc(F)c(Nc4ccc5c(c4)NC(=O)C(F)(F)O5)n3)ccc2O1` (racemic) [Compound R927049] had an IC50 of 4 nM.

`CC1(C)Oc2ccc(Nc3ncc(F)c(Nc4ccc5c(c4)NC(=O)C(F)(F)O5)n3)cc2NC1=O` [Compound R940367] yielded an IC50 of 13 nM.

For `O=C1COc2ccc(Nc3nc(Nc4cccc(OCC(=O)NC5CCC5)c4)ncc3F)nc2N1` [Compound R945389], the IC50 worked out at 35 nM.
